Laboratory results published in PubChem BioAssay AID2060615 (Molecular Pharmacology Branch, DTP, NCI, 2025).
pIC50: −log10 of the molar value. Values joined by “and” are separate entries in the source; they are usually repeats but may differ in a detail not shown here. Identical values can stand only once.

System: 496974-208-R-J2-PDC complex spheroids, growth % test/control
Test: Anticancer human tumor 496974-208-R-J2-PDC patient-derived pancreatic carcinoma cell line growth inhibition [CLK]
Conditions: for viability, T/C: stronger effect = lower value
Source text: A high-throughput screen of multi-cell type tumor spheroids was designed to identify active combinations of […] and targeted small molecules. Complex spheroids include a stromal component modeled by human endothelial cells (HUVEC) and fibroblasts modeled by human mesenchymal stem cells (MSCs). The concentration ranges selected for each drug and investigational agent were based upon clinically achievable concentrations if the clinical Cmax of the agent was known.
Compounds. The drugs and investigational agents: cirtuvivint (SM08502; NSC835563), CC-671 (NSC850746), vemurafenib (NSC761431), tapotoclax (NSC804041), sotorasib (NSC818433), adagrasib (NSC831453), MRTX-1133 (NSC836407), BAY2416964 (NSC825713), copanlisib (NSC816437), inavolisib (NSC800729), abemaciclib (NSC768073), osimertinib (NSC779217), entinostat (NSC756642), eltanexor (KPT-8602, NSC794443), venetoclax (NSC766270), ceralasertib (NSC777638), bortezomib (NSC756655), olaparib (NSC753686), talazoparib (NSC767125), alisertib (NSC759677), peposertib (NSC802822), gemcitabine (NSC613327), 5-fluorouracil (NSC19893), SN-38 (NSC673596), oxaliplatin (NSC266046), paclitaxel (NSC125973), and doxorubicin (NSC123127), were obtained from the National Cancer Institute (NCI) Developmental Therapeutics Program Chemical Repository. The FDA-approved anticancer drug set is available from the Developmental Therapeutics Program at https://dtp.cancer.gov/organization/dscb/obtaining/available plates.htm. […] The stock solutions were prepared in dimethyl sulfoxide (DMSO, Sigma-Aldrich, St. Louis, MO, cat. D2650), except for the platinum complexes which were prepared in saline (Quality Biological, Gaithersburg, MD, cat. 114-055-101), at 800-fold the tested concentration and stored at -70 degrees C prior to their use. All drugs and investigational agents were tested over a range starting from a high concentration at or near the clinical Cmax and decreasing in half-log increments. If the clinical Cmax for an agent had not been determined, the highest concentration tested was 10 microM.
Cell Culture. All cells were maintained in an incubator at 37 degrees C and 5% CO2 with 95% humidity. The PDC lines were cultured according to standard operating procedures established by the NCI PDMR. Briefly, all PDCs were thawed and cultured in Matrigel-coated flasks prepared with a working solution of 1X Ham's F-12 nutrient mix, without supplementation (Invitrogen, Waltham, MA, cat. 11765054), 100 U/mL penicillin-streptomycin (Invitrogen, cat. 15140122), and 2.5% Matrigel (Corning Inc., Corning, NY, cat. 354248) for the first three passages. The 947758-054-R-J2-PDC line was cultured in 6B/Colon 1A media, which includes advanced DMEM/F-12 (Thermo Fisher Scientific, cat. 12634028), 10 mM HEPES (Thermo Fisher Scientific, cat. 15630080), 1X GlutaMAX supplement (Thermo Fisher Scientific, cat. 35050061), 0.1 mg/mL primocin (InvivoGen, cat. ant-pm-2), 10% defined fetal bovine serum, heat inactivated (HyClone Laboratories Inc., cat. SH30070.03HI), 1.25 mM N-Acetyl-L-cysteine (Sigma-Aldrich, cat. A9165), 10 mM nicotinamide (Sigma-Aldrich, cat. N0636), 1X B-27 supplement (Thermo Fisher Scientific, cat. 17504044), 1X N-2 supplement (Thermo Fisher Scientific, cat. 17502048), and 10 microM Y-27632 dihydrochloride (Tocris Bioscience, cat. 1254). The 876862-298-R-J1-PDC was cultured in 6E media, which includes all 6B/Colon 1A media components plus 50% L-WRN conditioned media (ATCC, cat. CRL-3276), 50 ng/mL recombinant human EGF recombinant protein (hEGF; Thermo Fisher Scientific, cat. PHG0311), 10 ng/mL recombinant human fibroblast growth factor 10 (hGFG-10; PeproTech, cat. 100-26), 1 ng/mL recombinant human fibroblast growth factor 2 (hFGF-2; PeproTech, cat. 100-18B), and 1 µM prostaglandin E2 (PGE2; Tocris, cat. 2296). The 227483-062-R1-J1-PDC line was cultured in Panc media, containing all 6E components except hFGF-2, with the addition of 500 nM SB-431542 (Selleckchem, cat. S1067) and 10 nM gastrin (Tocris, cat. 3006). […]
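Also: spheroids exposed to the drugs for 7 days before readout.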
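For viability, T/C in this document: 100% = DMSO vehicle control wells.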

Work on `CC(=O)O[C@H]1C(=O)[C@@]2(C)[C@H]([C@H](OC(=O)c3ccccc3)[C@]3(O)C[C@H](OC(=O)[C@H](O)[C@@H](NC(=O)c4ccccc4)c4ccccc4)C(C)=C1C3(C)C)[C@]1(OC(C)=O)CO[C@@H]1C[C@@H]2O` yielded a viability, T/C (compound 0.0316 µM) of 34.8%, a viability, T/C (compound 0.1 µM) of 28.4% and a viability, T/C (compound 0.316 µM) of 30.7%. It also gave a viability, T/C (compound 1 µM) of 27.8%, a viability, T/C (compound 3.16 µM) of 38.6% and a viability, T/C (compound 10 µM) of 29.1%. The pIC50 (curve of compound) was > 7.50.
For `COc1ccc([C@@H](O)c2cc(-c3ncnc4cc(N5CCOCC5)ccc34)c(F)cc2Cl)nn1`, the viability, T/C (compound 0.0316 µM) was 104%, the viability, T/C (compound 0.1 µM) was 91.3% and 92.1% and the viability, T/C (compound 0.316 µM) was 87% and 103%. For the same molecule, the viability, T/C (compound 1 µM) was 77.4% and 80.6%, the viability, T/C (compound 3.16 µM) was 64.5% and 71.6% and the viability, T/C (compound 10 µM) was 31.2% and 40.8%. For the same molecule, the pIC50 (curve of compound) was 5.31 and 5.15.
For `COc1cccc2c1C(=O)c1c(O)c3c(c(O)c1C2=O)CC(O)(C(=O)CO)CC3OC1CC(N)C(O)C(C)O1` (stereo not drawn), the viability, T/C (compound 0.0316 µM) was 73.2% and 85.7%, the viability, T/C (compound 0.1 µM) was 53.8% and 61.2% and the viability, T/C (compound 0.316 µM) was 26% and 39.9%. The viability, T/C (compound 1 µM) was 2.82% and 3.77%, the viability, T/C (compound 3.16 µM) was 0.71% and 0.67% and the viability, T/C (compound 10 µM) was 1.39% and 0.57%. The pIC50 (curve of compound) was 6.92 and 6.75.
In the case of `C=CC(=O)N1CCN(c2nc(=O)n(-c3c(C)ccnc3C(C)C)c3nc(-c4c(O)cccc4F)c(F)cc23)C(C)C1` (stereo not drawn) + CN1CCN(c2cc(C(=O)Nc3cc4cc(-c5cnn(C)c5)ccc4cn3)ccn2)CC1, the pIC50 (curve of first compound, second compound 0.0316 µM) was < 5.00, the pIC50 (curve of first compound, second compound 0.1 µM) was < 5.00 and the pIC50 (curve of first compound, second compound 0.316 µM) was > 7.50. The pIC50 (curve of first compound, second compound 1 µM) was > 7.50, the pIC50 (curve of first compound, second compound 3.16 µM) was > 7.50 and the pIC50 (curve of first compound, second compound 10 µM) was > 7.50. For the same molecule, the viability, T/C (second compound 0.0316 µM, first compound 0.0316 µM) was 102%, the viability, T/C (second compound 0.0316 µM, first compound 0.1 µM) was 114% and the viability, T/C (second compound 0.0316 µM, first compound 0.316 µM) was 104%. The viability, T/C (second compound 0.0316 µM, first compound 1 µM) was 120%, the viability, T/C (second compound 0.0316 µM, first compound 3.16 µM) was 128% and the viability, T/C (second compound 0.0316 µM, first compound 10 µM) was 99.9%. For the same molecule, the viability, T/C (second compound 0.1 µM, first compound 0.0316 µM) was 90.2%, the viability, T/C (second compound 0.1 µM, first compound 0.1 µM) was 89.7% and the viability, T/C (second compound 0.1 µM, first compound 0.316 µM) was 89.2%. For the same molecule, the viability, T/C (second compound 0.1 µM, first compound 1 µM) was 104%, the viability, T/C (second compound 0.1 µM, first compound 3.16 µM) was 101% and the viability, T/C (second compound 0.1 µM, first compound 10 µM) was 78.4%. It also gave a viability, T/C (second compound 0.316 µM, first compound 0.0316 µM) of 8.25%, a viability, T/C (second compound 0.316 µM, first compound 0.1 µM) of 9.83% and a viability, T/C (second compound 0.316 µM, first compound 0.316 µM) of 8.72%. For the same molecule, the viability, T/C (second compound 0.316 µM, first compound 1 µM) was 10.3%, the viability, T/C (second compound 0.316 µM, first compound 3.16 µM) was 7.48% and the viability, T/C (second compound 0.316 µM, first compound 10 µM) was 5.87%. For the same molecule, the viability, T/C (second compound 1 µM, first compound 0.0316 µM) was 0.39%, the viability, T/C (second compound 1 µM, first compound 0.1 µM) was 0.6% and the viability, T/C (second compound 1 µM, first compound 0.316 µM) was 1.15%. The viability, T/C (second compound 1 µM, first compound 1 µM) was 0.78%, the viability, T/C (second compound 1 µM, first compound 3.16 µM) was 1% and the viability, T/C (second compound 1 µM, first compound 10 µM) was 3.71%. It also gave a viability, T/C (second compound 3.16 µM, first compound 0.0316 µM) of 0.44%, a viability, T/C (second compound 3.16 µM, first compound 0.1 µM) of 1.82% and a viability, T/C (second compound 3.16 µM, first compound 0.316 µM) of 0.7%. The viability, T/C (second compound 3.16 µM, first compound 1 µM) was 0.75%, the viability, T/C (second compound 3.16 µM, first compound 3.16 µM) was 0.83% and the viability, T/C (second compound 3.16 µM, first compound 10 µM) was 2.13%. The viability, T/C (second compound 10 µM, first compound 0.0316 µM) was 0.31%, the viability, T/C (second compound 10 µM, first compound 0.1 µM) was 0.35% and the viability, T/C (second compound 10 µM, first compound 0.316 µM) was 0.36%. For the same molecule, the viability, T/C (second compound 10 µM, first compound 1 µM) was 0.46%, the viability, T/C (second compound 10 µM, first compound 3.16 µM) was 2.05% and the viability, T/C (second compound 10 µM, first compound 10 µM) was 0.94%.
